# Test results: patent publication US7250442B2, “Dihydroindol-2-one derivatives as steroid hormone nuclear receptor modulators” (Eli Lilly and Company, priority 2003, dated 2007)
# Target: T1, glucocorticoid receptor (Homo sapiens, UniProt P04150)
# T1 construct: host or cells: A549 human lung epithelial cells (sonicated cell extract)
# T1 sequence (P04150 1-777): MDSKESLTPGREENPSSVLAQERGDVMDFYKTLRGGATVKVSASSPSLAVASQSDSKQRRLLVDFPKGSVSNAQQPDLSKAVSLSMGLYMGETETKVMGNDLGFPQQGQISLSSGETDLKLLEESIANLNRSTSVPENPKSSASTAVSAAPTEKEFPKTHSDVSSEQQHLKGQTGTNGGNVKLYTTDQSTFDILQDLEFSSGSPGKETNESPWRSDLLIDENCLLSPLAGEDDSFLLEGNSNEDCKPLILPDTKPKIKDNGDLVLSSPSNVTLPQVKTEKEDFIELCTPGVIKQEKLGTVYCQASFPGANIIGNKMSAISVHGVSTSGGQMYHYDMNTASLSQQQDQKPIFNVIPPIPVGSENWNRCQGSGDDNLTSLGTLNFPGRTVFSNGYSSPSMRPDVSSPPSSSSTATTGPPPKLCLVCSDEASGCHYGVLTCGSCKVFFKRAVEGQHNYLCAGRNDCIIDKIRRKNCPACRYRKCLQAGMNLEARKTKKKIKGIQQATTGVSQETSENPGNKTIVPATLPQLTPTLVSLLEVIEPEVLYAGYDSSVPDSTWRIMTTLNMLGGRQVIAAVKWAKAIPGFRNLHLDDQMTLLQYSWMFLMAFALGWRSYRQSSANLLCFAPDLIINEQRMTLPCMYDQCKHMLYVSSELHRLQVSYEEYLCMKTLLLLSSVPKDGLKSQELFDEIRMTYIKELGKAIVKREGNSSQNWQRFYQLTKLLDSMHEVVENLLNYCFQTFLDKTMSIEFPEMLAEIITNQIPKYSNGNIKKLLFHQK
# Test: Glucocorticoid Receptor Binding Assay ([3H]-dexamethasone displacement, A549 cell extract)
# Conditions: A549 human lung epithelial cell extract, 1.86 nM [3H]-dexamethasone; read-out: GR Ki
# Description: Glucocorticoid Receptor Binding Assay:
# A549 human lung epithelial cells (ATCC) are grown at a scale where gram quantity cell pellets are obtained. Harvested cell pellets are washed twice in cold phosphate buffered saline, centrifuged, and resuspended in cold assay binding buffer. The assay binding buffer consists of 10% glycerol, 50 mM Tris-HCl (pH7.2), 75 mM sodium chloride, 1.5 mM magnesium chloride, 1.5 mM EDTA, and 10 mM sodium molybdate. Cell suspensions were lysed via sonication, centrifuged, and the “extract” supernatant is snap frozen and stored at −80C. until needed.
# GR binding assays are performed in a final volume of 140 ul containing 50-200 ug of A549 cell extract and 1.86 nM [^3H]-dexamethasone (Amersham) plus varying concentrations of test compound or vehicle. Briefly, assays are prepared at RT in 96-well Fisher 3356 plates, each well containing 100 ul of A549 cell extract, 20 ul of [^3H]-dexamethasone, and 20 ul of test compound/vehicle. Incubations are carried out at 4 degrees celsius for 16 hours. After incubation, 70 ul of 3× dextran-coated charcoal solution is added to each reaction, mixed, and incubated for 8 minutes at RT. 3×-dextran-coated charcoal solution consists of 250 ml assay binding buffer, 3.75 g Norit A charcoal (Sigma), and 1.25 g dextran T-70 (Amersham). Charcoal/unbound radioligand complexes are removed by centrifugation of the plate and 140 ul of supernatant from each well is transferred to another 96 well Optiplate (Packard Instruments). 200 ul of Microscint-20 scinillant (Packard Instruments) is added to each well and amount of receptor bound radioligand is determined using Packard Instruments TopCount instrument.
# IC50 values, defined as the concentration of test compound required to decrease [^3H]-dexamethasone binding by 50%, are then determined. Ki values for each respective test compound can then be calculated by application of the Cheng-Prusoff equation as described in Cheng et al., Relationship Between The Inhibition Constant (Ki) and The Concentration of Inhibitor Which Causes 50% Inhibition (IC50) of an Enzymatic Reaction, Biochem. Pharmacol., 22: 3099-31088; (1973).
row,Ki [nM],Compound
1,≤ 500,"Cc1cc(C2(c3cc(C)c(O)c(C)c3)C(=O)N(Cc3c(Cl)cccc3Cl)c3ccccc32)cc(C)c1O [Example 113, 1-(2,6-Dichloro-benzyl)-3,3-bis-(4-hydroxy-3,5-dimethyl-phenyl)-1,3-dihydro-indol-2-one]"
2,≤ 500,"Cc1cc(C2(c3cc(C)c(O)c(C)c3)C(=O)N(Cc3ccc4ccccc4n3)c3ccccc32)cc(C)c1O [Example 97, 3,3-Bis-(4-hydroxy-3,5-dimethyl-phenyl)-1-quinolin-2-ylmethyl-1,3-dihydro-indol-2-one]"
3,≤ 500,"Cc1cc(C2(c3cc(C)c(O)c(C)c3)C(=O)N(Cc3c(F)cccc3F)c3ccccc32)cc(C)c1O [Example 115, 1-(2,6-Difluoro-benzyl)-3,3-bis-(4-hydroxy-3,5-dimethyl-phenyl)-1,3-dihydro-indol-2-one]"
4,≤ 500,"Cc1cc(C2(c3cc(C)c(O)c(C)c3)C(=O)N(Cc3ccc(Br)cc3)c3ccccc32)cc(C)c1O [Example 58, 1-(4-Bromo-benzyl)-3,3-bis-(4-hydroxy-3,5-dimethyl-phenyl)-1,3-dihydro-indol-2-one]"
5,≤ 500,"Cc1cc(C2(c3cc(C)c(O)c(C)c3)C(=O)N(c3ccccc3Cl)c3ccccc32)cc(C)c1O [Example 129, 1-(2-Chloro-phenyl)-3,3-bis-(4-hydroxy-3,5-dimethyl-phenyl)-1,3-dihydro-indol-2-one]"
6,≤ 500,"Cc1ccccc1CN1C(=O)C(c2cc(C)c(O)c(C)c2)(c2cc(C)c(O)c(C)c2)c2cc(Br)ccc21 [Example 20, 5-Bromo-3,3-bis-(4-hydroxy-3,5-dimethyl-phenyl)-1-(2-methyl-benzyl)-1,3-dihydro-indol-2-one]"
7,≤ 500,"COC(=O)c1ccc(CN2C(=O)C(c3cc(C)c(O)c(C)c3)(c3cc(C)c(O)c(C)c3)c3ccccc32)o1 [Example 108, 5-[3,3-Bis-(4-hydroxy-3,5-dimethyl-phenyl)-2-oxo-2,3-dihydro-indol-1-ylmethyl]-furan-2-carboxylic acid methyl ester]"
8,≤ 500,"Cc1cc(C2(c3cc(C)c(O)c(C)c3)C(=O)N(c3ccncc3)c3ccccc32)cc(C)c1O [Example 136, 3,3-Bis-(4-hydroxy-3,5-dimethyl-phenyl)-1-pyridin-4-yl-1,3-dihydro-indol-2-one]"
9,≤ 500,"Cc1cccc(N2C(=O)C(c3cc(C)c(O)c(C)c3)(c3cc(C)c(O)c(C)c3)c3ccccc32)c1 [Example 133, 3,3-Bis-(4-hydroxy-3,5-dimethyl-phenyl)-1-m-tolyl-1,3-dihydro-indol-2-one]"
10,≤ 500,"Cc1ccc(N2C(=O)C(c3cc(C)c(O)c(C)c3)(c3cc(C)c(O)c(C)c3)c3ccccc32)cc1 [Example 125, 3,3-Bis-(4-hydroxy-3,5-dimethyl-phenyl)-1-p-tolyl-1,3-dihydro-indol-2-one]"
11,≤ 500,"Cc1cc(C2(c3cc(C)c(O)c(C)c3)C(=O)N(Cc3ccccc3N)c3ccccc32)cc(C)c1O [Example 119, 1-(2-Amino-benzyl)-3,3-bis-(4-hydroxy-3,5-dimethyl-phenyl)-1,3-dihydro-indol-2-one]"
12,≤ 500,"Cc1cc(C2(c3cc(C)c(O)c(C)c3)C(=O)N(c3ccccc3)c3ccccc32)cc(C)c1O [Example 126, 3,3-Bis-(4-hydroxy-3,5-dimethyl-phenyl)-1-phenyl-1,3-dihydro-indol-2-one]"
13,≤ 500,"Cc1cc(C2(c3cc(C)c(O)c(C)c3)C(=O)N(CCC3CCCCC3)c3ccccc32)cc(C)c1O [Example 110, 1-(2-Cyclohexyl-ethyl)-3,3-bis-(4-hydroxy-3,5-dimethyl-phenyl)-1,3-dihydro-indol-2-one]"
14,≤ 500,"Cc1cc(C2(c3cc(C)c(O)c(C)c3)C(=O)N(Cc3ccccc3[N+](=O)[O-])c3ccccc32)cc(C)c1O [Example 65, 3,3-Bis-(4-hydroxy-3,5-dimethyl-phenyl)-1-(2-nitro-benzyl)-1,3-dihydro-indol-2-one]"
15,≤ 500,"Cc1cc(C2(c3cc(C)c(O)c(C)c3)C(=O)N(Cc3ccc(-c4csnn4)cc3)c3ccccc32)cc(C)c1O [Example 84, 3,3-Bis-(4-hydroxy-3,5-dimethyl-phenyl)-1-(4-[1,2,3]thiadiazol-4-yl-benzyl)-1,3-dihydro-indol-2-one]"
16,≤ 500,"Cc1ccc2c(c1)C(c1cc(C)c(O)c(C)c1)(c1cc(C)c(O)c(C)c1)C(=O)N2Cc1ccccc1C [Example 21, 3,3-Bis-(4-hydroxy-3,5-dimethyl-phenyl)-5-methyl-1-(2-methyl-benzyl)-1,3-dihydro-indol-2-one]"
17,≤ 500,"COC(=O)c1ccc(CN2C(=O)C(c3cc(C)c(O)c(C)c3)(c3cc(C)c(O)c(C)c3)c3ccccc32)cc1 [Example 3, 4-[3,3-Bis-(4-hydroxy-3,5-dimethyl-phenyl)-2-oxo-2,3-dihydro-indol-1-ylmethyl]-benzoic acid methyl ester]"
18,≤ 500,"C#CCN1C(=O)C(c2cc(C)c(O)c(C)c2)(c2cc(C)c(O)c(C)c2)c2ccccc21 [Example 101, 3,3-Bis-(4-hydroxy-3,5-dimethyl-phenyl)-1-prop-2-ynyl-1,3-dihydro-indol-2-one]"
19,≤ 500,"Cc1cc(C2(c3cc(C)c(O)c(C)c3)C(=O)N(C)c3ccccc32)cc(C)c1O [Example 4, 3,3-Bis-(4-hydroxy-3,5-dimethyl-phenyl)-1-methyl-1,3-dihydro-indol-2-one]"
20,≤ 500,"Cc1cc(C2(c3cc(C)c(O)c(C)c3)C(=O)N(c3cccc(C(C)C)c3)c3ccccc32)cc(C)c1O [Example 138, 3,3-Bis-(4-hydroxy-3,5-dimethyl-phenyl)-1-(3-isopropyl-phenyl)-1,3-dihydro-indol-2-one]"
21,≤ 500,"Cc1cc(C2(c3cc(C)c(O)c(C)c3)C(=O)N(Cc3ccccc3Cl)c3cccc(Cl)c32)cc(C)c1O [Example 26, 4-Chloro-1-(2-chloro-benzyl)-3,3-bis-(4-hydroxy-3,5-dimethyl-phenyl)-1,3-dihydro-indol-2-one]"
22,≤ 500,"Cc1cc(C2(c3cc(C)c(O)c(C)c3)C(=O)N(Cc3cccc([N+](=O)[O-])c3)c3ccccc32)cc(C)c1O [Example 85, 3,3-Bis-(4-hydroxy-3,5-dimethyl-phenyl)-1-(3-nitro-benzyl)-1,3-dihydro-indol-2-one]"
23,≤ 500,"Cc1cc(C2(c3cc(C)c(O)c(C)c3)C(=O)N(Cc3ccc(Cl)cc3F)c3ccccc32)cc(C)c1O [Example 83, 1-(4-Chloro-2-fluoro-benzyl)-3,3-bis-(4-hydroxy-3,5-dimethyl-phenyl)-1,3-dihydro-indol-2-one]"
24,≤ 500,"C=C(C)CN1C(=O)C(c2cc(C)c(O)c(C)c2)(c2cc(C)c(O)c(C)c2)c2ccccc21 [Example 106, 3,3-Bis-(4-hydroxy-3,5-dimethyl-phenyl)-1-(2-methyl-allyl)-1,3-dihydro-indol-2-one]"
25,≤ 1000,"Cc1cc(C2(c3cc(C)c(O)c(C)c3)C(=O)N(Cc3ccccc3)c3ccc(Br)cc32)cc(C)c1O [Example 15, 1-Benzyl-5-bromo-3,3-bis-(4-hydroxy-3,5-dimethyl-phenyl)-1,3-dihydro-indol-2-one]"
26,≤ 1000,"Cc1cc(C2(c3cc(C)c(O)c(C)c3)C(=O)N(Cc3ccc(OCc4ccccc4)cc3)c3ccccc32)cc(C)c1O [Example 74, 1-(4-Benzyloxy-benzyl)-3,3-bis-(4-hydroxy-3,5-dimethyl-phenyl)-1,3-dihydro-indol-2-one]"
27,≤ 1000,"COc1ccc(-c2nc(CN3C(=O)C(c4cc(C)c(O)c(C)c4)(c4cc(C)c(O)c(C)c4)c4ccccc43)no2)cc1 [Example 99, 3,3-Bis-(4-hydroxy-3,5-dimethyl-phenyl)-1-[5-(4-methoxy-phenyl)-[1,2,4]oxadiazol-3-ylmethyl]-1,3-dihydro-indol-2-one]"
